Assays:
Assay in all cases: Cytostatic cell culture assay (GI50), SRB
Format in all cases: cell-based
Conditions in all cases: 5 days incubation
A549 = tested on: A549
Excerpt: (§1) The assay is based on quantification of cell counts by a colorimetric detection of the cell associated proteins. The assay relies on the ability of sulforhodamine B (SRB) to bind to protein components of cells that have been fixed to tissue-culture plates by trichloroacetic acid (TCA). SRB is a bright-pink aminoxanthene dye with two sulfonic groups that bind to basic amino-acid residues under mild acidic conditions, and dissociate under basic conditions. As the binding of SRB is stoichiometric, the amount of dye extracted from stained cells is directly proportional to the cell mass.
(§2) Cell lines: All cell lines were obtained from ATCC (Manassas, Va.). Cultivation media containing Glutamax, and trypsin were purchased from Invitrogen (Carlsbad, Calif.). Doxorubicin, Clofarabine, TCA and SRB were from Sigma-Aldrich (St. Louis, Mo.). Gemcitabine was obtained from Moravek Biochemicals (Brea, Calif.)
(§3) • 1. Trypsinize the sub-confluent cells, count them, and adjust the cell concentrations according to the cell counts listed in Table 1. • 2. Distribute the cells into the 96-well plates in 150 μL of media. Incubate the plates overnight in humidified CO2 incubator at 37° C. • 3. Fix one plate of each cell line with TCA. Discard the cultivation media from the plates by flicking them gently and add 100 ul cold 10% (vol/vol) TCA to each well. Incubate the plates at 4 degree refrigerator for 1 hour. Discard TCA from the plates by flicking them gently. Rinse plates four times in a washing basin containing tap water. Store the plates at room temperature. These plates represent cell counts on day zero. • 4. Prepare a set of medium solutions containing various concentrations of tested compounds by making 5-fold serial dilutions in 96-well plate. Add 50 μL of the diluted compounds per well. Include controls with untreated cells and cells treated with doxorubicin, clofarabine and gemcitabine. • 5. Incubate the plates for 5 days at 37° C. • 6. Fix the plates with TCA. Discard the cultivation media from the plates by flicking them gently and add 100 ul cold 10% (vol/vol) TCA to each well. Incubate the plates at 4 degree refrigerator for 1 hour. Discard TCA from the plates by flicking them gently. Rinse plates four times in a washing basin containing tap water. • 7. Remove excess water by tapping the plates face down, gently on a paper towel. Allow the plates to air-dry at room temperature. • 8. Add 100 ul of 0.057% SRB solution in 1% (vol/vol) acetic acid to each well of the plates fixed with TCA on day zero and five. Leave at room temperature for 30 minutes. • 9. Flick the plates gently to discard SRB. Rinse the plates four times with 1% (vol/vol) Acetic Acid. • 10. Store the plates at 37 degree incubator to facilitate faster drying. • 11. Once the plates are completely dry, add 200 ul of 10 mM Tris base solution (pH 10.5) to each well. Leave at room temperature for 30 minutes for SRB to solubilize. • 12. Measure the OD at 500 nm in a microplate reader • 13. Calculate the percentage of cell-growth inhibition using the next formula: % of control cell growth=100×(ODsample−mean ODday0)/(ODneg control−mean ODday0)
(§4) For GI50 determination, plot a dose-response curve between the compound concentration and percent of growth inhibition. GI50 values can be derived by fitting dose-response curves using sigmoidal dose response equation.

BT-549 = tested on: BT-549
Excerpt: as §1, §2, §3, §4

Du-145 = tested on: Du-145
Excerpt: as §1, §2, §3, §4

HCT-116 = tested on: HCT-116
Excerpt: as §1, §2, §3, §4

HCT-15 = tested on: HCT-15
Excerpt: as §1, §2, §3, §4

Hs-578 = tested on: Hs-578
Excerpt: as §1, §2, §3, §4

NCI-H23 = tested on: NCI-H23
Excerpt: as §1, §2, §3, §4

PC3 = tested on: PC3
Excerpt: as §1, §2, §3, §4

| Structure (SMILES) | GI50 (A549; Homo sapiens, A549, 120 h) | GI50 (BT-549; Homo sapiens, BT-549, 120 h) | GI50 (Du-145; Homo sapiens, DU-145, 120 h) | GI50 (HCT-116; Homo sapiens, HCT-116, 120 h) | GI50 (HCT-15; Homo sapiens, HCT-15, 120 h) | GI50 (NCI-H23; Homo sapiens, NCI-H23, 120 h) | GI50 (PC3; Homo sapiens, PC-3, 120 h) | GI50 (Hs-578; Hs578, 120 h) | GI50 (A549) | GI50 (BT-549) | GI50 (Du-145) | GI50 (HCT-116) | GI50 (Hs-578) | GI50 (NCI-H23) | GI50 (PC3) | GI50 (HCT-15) |
| --- | --- | --- | --- | --- | --- | --- | --- | --- | --- | --- | --- | --- | --- | --- | --- | --- |
| CCCOc1nc(N)nc2c1ncn2CCOCP(=O)(N[C@@H](Cc1ccccc1)C(=O)OCC)Oc1ccccc1 (some centres unmarked) [Example 55] | 80 nM | 756 nM | 4 nM | 47 nM | 815 nM | 9 nM | 59 nM | 149 nM |  |  |  |  |  |  |  |  |
| CCCOc1nc(N)nc2c1ncn2CCOCP(=O)(N[C@@H](C)C(=O)OCC)Oc1ccccc1 (single isomer, unassigned) [Example 53a] |  |  |  |  | 2110 nM |  |  |  | 268 nM | 249 nM | 2 nM | 154 nM | 62 nM | 5 nM | 31 nM |  |
| CCCCOC(=O)[C@H](C)NP(=O)(COCCn1cnc2c(OCCC)nc(N)nc21)Oc1ccccc1 (single isomer, unassigned) [Example 52b] |  |  |  |  |  |  |  |  | 15 nM | 100 nM | 0.3 nM | 11 nM | 2 nM | 1 nM | 3 nM | 517 nM |
| CCCOc1nc(N)nc2c1ncn2CCOCP(=O)(N[C@@H](C)C(=O)OC(C)C)Oc1ccccc1 (some centres unmarked) [Example 54] | 317 nM | 1770 nM | 65 nM | 840 nM | 2770 nM | 67 nM | 472 nM | 894 nM |  |  |  |  |  |  |  |  |
| CCCCOC(=O)[C@H](C)NP(=O)(COCCn1cnc2c(OC3CC3)nc(N)nc21)Oc1ccccc1 (some centres unmarked) [Example 58] | 204 nM | 585 nM | 1 nM | 114 nM | 1030 nM | 3 nM | 60 nM | 42 nM |  |  |  |  |  |  |  |  |

Second part, led by results:

| GI50 (A549; Homo sapiens, A549, 120 h) | GI50 (BT-549; Homo sapiens, BT-549, 120 h) | GI50 (Du-145; Homo sapiens, DU-145, 120 h) | GI50 (HCT-116; Homo sapiens, HCT-116, 120 h) | GI50 (HCT-15; Homo sapiens, HCT-15, 120 h) | GI50 (NCI-H23; Homo sapiens, NCI-H23, 120 h) | GI50 (PC3; Homo sapiens, PC-3, 120 h) | Structure (SMILES) | GI50 (Hs-578; Hs578, 120 h) | GI50 (A549) | GI50 (BT-549) | GI50 (Du-145) | GI50 (HCT-116) | GI50 (Hs-578) | GI50 (NCI-H23) | GI50 (PC3) | GI50 (HCT-15) |
| --- | --- | --- | --- | --- | --- | --- | --- | --- | --- | --- | --- | --- | --- | --- | --- | --- |
| 1710 nM | 104 nM | 10 nM | 430 nM | 10000 nM | 15 nM | 237 nM | CCOC(=O)[C@H](C)NP(=O)(COCCn1cnc2c(OC3CC3)nc(N)nc21)N[C@@H](C)C(=O)OCC [Example 42] | 162 nM |  |  |  |  |  |  |  |  |
| 640 nM | 116 nM | 35 nM | 194 nM | > 10000 nM | 38 nM | 121 nM | CCCOc1nc(N)nc2c1ncn2CCOCP(=O)(N1CCC[C@H]1C(=O)OC)N1CCC[C@H]1C(=O)OC [Example 22] | 82 nM |  |  |  |  |  |  |  |  |
| 1050 nM | 67 nM | 2 nM | 119 nM | 1950 nM | 9 nM | 81 nM | CCCCCCOC(=O)[C@@H]1CCCN1P(=O)(COCCn1cnc2c(OCCC)nc(N)nc21)N1CCC[C@H]1C(=O)OCCCCCC [Example 26] | 97 nM |  |  |  |  |  |  |  |  |
| 11000 nM | > 10000 nM | 1490 nM | 22000 nM | > 10000 nM | 2620 nM | 8000 nM | COC(=O)[C@@H](C)NP(=O)(COCCn1cnc2c(OC)nc(N)nc21)N[C@H](C)C(=O)OC [Example 32] | 6600 nM |  |  |  |  |  |  |  |  |
| 52 nM | 61 nM | 2 nM | 13 nM | 1090 nM | 4 nM | 11 nM | CCCCOC(=O)[C@H](C)NP(=O)(COCCn1cnc2c(OCCC)nc(N)nc21)N[C@@H](C)C(=O)OCCCC [Example 13] | 105 nM |  |  |  |  |  |  |  |  |
